This is an account of results in US20100035926A1, “PYRAZOLE DERIVATIVES AS NON-STEROIDAL GLUCOCORTICOID RECEPTOR LIGANDS” (priority 2006, published 2010).

One assay addresses T1, glucocorticoid receptor (Homo sapiens, UniProt P04150).
T1 construct: a partially purified full length glucocorticoid receptor
T1 sequence (P04150 1-777): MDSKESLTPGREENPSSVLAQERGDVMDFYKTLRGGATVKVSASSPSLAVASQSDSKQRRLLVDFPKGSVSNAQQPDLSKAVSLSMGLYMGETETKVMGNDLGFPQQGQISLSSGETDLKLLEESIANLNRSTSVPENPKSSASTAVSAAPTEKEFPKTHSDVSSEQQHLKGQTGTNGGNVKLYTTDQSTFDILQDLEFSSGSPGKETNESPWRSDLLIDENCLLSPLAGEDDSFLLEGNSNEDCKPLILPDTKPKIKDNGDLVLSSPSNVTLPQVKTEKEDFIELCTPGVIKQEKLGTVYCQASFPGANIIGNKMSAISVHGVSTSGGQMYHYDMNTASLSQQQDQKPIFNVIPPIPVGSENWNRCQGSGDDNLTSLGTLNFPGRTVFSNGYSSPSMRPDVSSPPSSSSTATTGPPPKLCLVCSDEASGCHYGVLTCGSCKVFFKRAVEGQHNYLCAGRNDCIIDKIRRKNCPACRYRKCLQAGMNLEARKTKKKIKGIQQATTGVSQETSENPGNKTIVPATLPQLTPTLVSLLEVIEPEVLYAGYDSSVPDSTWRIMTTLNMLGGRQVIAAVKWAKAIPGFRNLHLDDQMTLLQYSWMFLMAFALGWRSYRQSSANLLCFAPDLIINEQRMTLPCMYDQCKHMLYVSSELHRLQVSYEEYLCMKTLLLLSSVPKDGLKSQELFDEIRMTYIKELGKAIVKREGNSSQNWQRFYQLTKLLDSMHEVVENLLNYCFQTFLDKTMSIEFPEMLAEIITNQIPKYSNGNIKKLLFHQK
Put plainly: Glucocorticoid Receptor Binding Assay (fluorescence polarisation, displacement of Alexa 555 labelled dexamethasone derivative). Particulars: at least once in this assay; read-out: glucocorticoid binding pIC50 (converted). The procedure, abridged:
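Partially purified full-length GR incubated with test compound and fluorescent dexamethasone plus GR-stabilising buffer components, 2 hr at room temperature in the dark. Binding scored as displacement of tracer, read as decrease in fluorescence polarisation.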

Assay [1] addresses T2, GR (Homo sapiens, UniProt P04150).
T2 construct: endogenous in cells; host or cells: A549 (human lung carcinoma, ECACC No. 86012804), stably transfected with reporter plasmids only
T2 sequence (P04150 1-777): T1 sequence (P04150 1-777)
Put plainly: GR Functional Assay - NFκB Assay (A549 SPAP cells, TNFα stimulated). The format is cell-based. Particulars: for Emax: agonists, read-out: average maximum asymptote in the NFkB assay. The procedure, abridged:
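Stably transfected A549 SPAP cells at 0.16×10^6/ml in DMEM with 10% FCS were added to compound and stimulated with TNFα to drive NFκB-dependent SPAP expression. After 1 hr equilibration at room temperature, SPAP was read colorimetrically with pNPP in diethanolamine buffer, pH 9.8.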

Assay [2] deals with T2, GR. Description: GR Agonist Assay - MMTV Assay (A549 MMTV cells, renilla luciferase reporter). The assay is classed as cell-based. Particulars: 6 h, agonists, read-out: average maximum asymptote in the MMTV agonist assay. The procedure, abridged: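 Stably transfected A549 MMTV cells carry a GR-driven luciferase reporter. Cells at 0.1×10^6/ml in DMEM with 10% FCS and 25 mM HEPES were added to wells containing compound. After detection reagent, plates were held about 15 mins at room temperature and luminescence was read.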

The next assay addresses T3, Progesterone Receptor (Homo sapiens, UniProt P06401).
T3 construct: expressed in transfected cells; host or cells: CV-1 cells transduced with PRb-BacMam and MMTV-BacMam
T3 sequence (P06401 1-933): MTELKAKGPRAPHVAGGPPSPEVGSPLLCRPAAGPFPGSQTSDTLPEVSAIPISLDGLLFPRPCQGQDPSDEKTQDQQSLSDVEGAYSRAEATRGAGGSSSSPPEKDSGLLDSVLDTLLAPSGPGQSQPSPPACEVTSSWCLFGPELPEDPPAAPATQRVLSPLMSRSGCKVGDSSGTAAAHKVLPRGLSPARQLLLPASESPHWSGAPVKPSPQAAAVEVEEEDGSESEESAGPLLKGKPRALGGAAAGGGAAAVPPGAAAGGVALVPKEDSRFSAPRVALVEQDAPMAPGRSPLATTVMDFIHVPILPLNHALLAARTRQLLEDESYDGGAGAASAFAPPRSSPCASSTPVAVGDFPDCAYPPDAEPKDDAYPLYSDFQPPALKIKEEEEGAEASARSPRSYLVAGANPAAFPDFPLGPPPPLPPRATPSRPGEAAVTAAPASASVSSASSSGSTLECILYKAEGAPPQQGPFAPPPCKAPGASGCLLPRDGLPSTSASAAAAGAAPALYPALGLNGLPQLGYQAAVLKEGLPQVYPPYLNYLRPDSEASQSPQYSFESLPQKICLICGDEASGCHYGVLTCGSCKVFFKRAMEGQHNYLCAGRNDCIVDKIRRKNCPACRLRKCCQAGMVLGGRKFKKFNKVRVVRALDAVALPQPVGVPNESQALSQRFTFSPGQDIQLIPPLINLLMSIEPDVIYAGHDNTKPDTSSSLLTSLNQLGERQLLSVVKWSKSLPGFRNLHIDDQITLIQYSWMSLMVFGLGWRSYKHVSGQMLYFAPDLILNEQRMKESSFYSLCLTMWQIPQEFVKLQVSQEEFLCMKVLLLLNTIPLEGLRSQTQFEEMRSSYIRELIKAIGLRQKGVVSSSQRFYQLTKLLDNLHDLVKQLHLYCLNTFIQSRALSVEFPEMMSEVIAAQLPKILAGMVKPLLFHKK
Put plainly: Assay for Progesterone Receptor Agonist Activity (CV-1 cells, PRb-BacMam, MMTV-BacMam). The assay is classed as cell-based. As to conditions: at least once in this assay, read-out: progesterone receptor agonist pEC50 (converted). How it is done:
A T225 flask of CV-1 cells at a density of 80% confluency was washed with PBS, detached from the flask using 0.25% trypsin and counted using a Sysmex KX-21N. Cells were diluted in DMEM containing 10% Hyclone, 2 mM […] and 1% Pen/Strep at 140 cells/μl and transduced with 10% PRb-BacMam and 10% MMTV-BacMam. […] of suspension cells were dispensed to each well of white Nunc 384-well plates, containing compounds at the required concentration. After 24 hr 10 μl of Steadylite were added to each well of the plates. Plates were incubated in the dark for 10 min before reading them on a Viewlux reader. Dose response curves were constructed from which pEC50 values were estimated.

Setting [3] is: at least once in the NFkB assay, A549 SPAP cells, read-out: pIC50 in the NFkB assay (converted).
Setting [4] is: at least once, examples listed as agonists in NFkB and MMTV assays, read-out: potency pIC50 in the NFKB assay (converted).

Molecules are shown by their SMILES. Read-outs that look alike come from different tables or passages of the source.

Turning to `CCN(CC(O)(CNC(=O)c1cnn(-c2ccc(F)cc2)c1N)C(F)(F)F)C(=O)c1cccc(F)c1F` (single isomer, unassigned) [Example 5 Enantiomer 1, 5-Amino-N-(2-{[[(2,3-difluorophenyl)carbonyl](ethyl)amino]methyl}-3,3,3-trifluoro-2-hydroxypropyl)-1-(4-fluorophenyl)-1H-pyrazole-4-carboxamide], the IC50 on glucocorticoid receptor is below 1 µM; on GR [1] (setting [3]) it was below 1 µM; at GR [1] (setting [4]), below 0.316 µM. Moreover, the Emax at GR [1] (A549 SPAP cells) and at GR [2] was at least 40% in each case. Besides, on Progesterone Receptor, the EC50 was above 1 µM.
In the case of `CN(CC(O)(CNC(=O)c1cnn(-c2ccc(F)cc2)c1N)C(F)(F)F)C(=O)c1ccccc1Cl` (single isomer, unassigned) [Example 7 Enantiomer 1, 5-amino-N-(2-{[[(2-chlorophenyl)car-bonyl](methyl)amino]methyl}-3,3,3-trifluoro-2-hydroxypropyl)-1-(4-fluorophenyl)-1H-pyrazole-4-carboxamide], the IC50 on glucocorticoid receptor was below 1 µM; at GR [1] (setting [3]) it was below 1 µM; on GR [1] (setting [4]) it was below 0.316 µM. The Emax on GR [1] (A549 SPAP cells) and at GR [2] was at least 40% in each case. Besides, the EC50 at Progesterone Receptor was above 1 µM.
As for `CCN(CC(O)(CNC(=O)c1cnn(-c2ccc(F)cc2)c1N)C(F)(F)F)C(=O)c1cccc2cccnc12` (single isomer, unassigned) [Example 8 Enantiomer 1, N-{2-[({[5-amino-1-(4-fluorophenyl)-1H-pyrazol-4-yl]carbonyl}amino)methyl]-3,3,3-trifluoro-2-hydroxypropyl}-N-ethyl-8-quinolinecarboxamide], the values for the IC50 at glucocorticoid receptor, on GR [1] (setting [3]) and at GR [1] (setting [4]) were below 1 µM, below 1 µM and below 0.316 µM, respectively. In addition, the Emax at GR [1] (A549 SPAP cells) and at GR [2] was at least 40% each time. Moreover, the EC50 on Progesterone Receptor was above 1 µM.
Regarding `CCN(CC(O)(CNC(=O)c1cnn(-c2ccc(F)cc2)c1N)C(F)(F)F)C(=O)c1ccccc1C(F)(F)F` (single isomer, unassigned) [Example 9 Enantiomer 1, 5-amino-N-{2-[(ethyl{[2-(trifluoromethyl)phenyl]carbonyl}amino)methyl]-3,3,3-trifluoro-2-hydroxypropyl}-1-(4-fluorophenyl)-1H-pyrazole-4-carboxamide], the IC50 at glucocorticoid receptor is below 1 µM; on GR [1] (setting [3]) it was below 1 µM; at GR [1] (setting [4]), below 0.316 µM. The Emax at GR [1] (A549 SPAP cells) and on GR [2] was at least 40% throughout. Besides, the EC50 on Progesterone Receptor is above 1 µM.
Take `CCN(CC(O)(CNC(=O)c1cnn(-c2ccccc2)c1N)C(F)(F)F)C(=O)c1ccccc1F` (single isomer, unassigned) [Example 45 Enantiomer 1, 5-amino-N-[2-({ethyl[(2-fluorophenyl)car-bonyl]amino}methyl)-3,3,3-trifluoro-2-hydroxypropyl]-1-phenyl-1H-pyrazole-4-carboxamide]: the IC50 on glucocorticoid receptor was below 1 µM; at GR [1] (setting [3]), below 1 µM; on GR [1] (setting [4]), below 0.316 µM. Also, the Emax at GR [1] (A549 SPAP cells) and on GR [2] was at least 40% each time. In addition, the EC50 on Progesterone Receptor was above 1 µM.
